The source of these data is patent US6727231B1, “Uridine therapy for patients with elevated purine levels” (Repligen Corporation, priority 2000, dated 2004).

“Also recorded” adds a separate entry of the source.

One series concerns hyperuricosuric patients. The following applies: some of these patients; cited from earlier work.
Series [1] relates to Patient having increased uric acid in urine and diagnosed with symptoms of PDD. Briefly: Treatment of Patient 1, who had increased uric acid in urine and was diagnosed with symptoms of PDD. The class given is in vivo, human. The protocol: Patient 1 was diagnosed with PDD. […], the patient's urine was analyzed, and the urine level of uric acid was 18.1 mg/kg/day. The normal level of uric acid in normal patients at age nine is 8.3+/−2.0 mg/kg/day. The uric acid level in the urine gradually declined to approximately normal levels, however the symptoms of PDD remained.
[…], Patient 1 was treated with a variety of drugs and exercise- and stress-reducing regimens. […] The exercise- and stress-reducing regimen helped in some respects, because Patient 1 was often fatigued. In addition, the low purine diet was continued at times along with vitamin B6 and magnesium. Over these many years, Patient 1 had varying levels of rather minor improvements in their symptoms in response to these and other attempted therapies.
Patient 1 began use of uridine, with an oral dosage of approximately 50 mg/kilogram of body weight per day. […] In particular, Patient 1 tried varying dosages of uridine up to 1000 mg/kg/day.

For series [2] the following is noted: cited from earlier work.
Series [3] concerns hypouricosuric PDD patients. The settings on record: single oral doses of 1,000 mg/kg/day; cited from earlier work.
For series [4] the following is noted: cited from earlier work. This is another data set of the same source.
Where [5] appears, read: Patient 1, oral uridine, comparative narrative data against no uridine.

For `Oc1ncnc2[nH]ncc12` [allopurinol], the “Benefit in patients with hyperuricosuria” value with hyperuricosuric patients is listed as “benefited”.
For `C[C@H](N)Cc1ccccc1.C[C@H](N)Cc1ccccc1.O=S(=O)(O)O` [Dexedrine®, reference compound], the “Effect of earlier drug treatment on the patient's condition” value (“Effect of earlier drug treatment” for short) in series [1] (Patient) is given as “little success or worsening of their condition”.
`O=C(CCCN1CCC(O)(c2ccc(Cl)cc2)CC1)c1ccc(F)cc1` [Haldol®, reference compound]: in series [1] (Patient 1, donor alpha), the “Effect of earlier drug treatment” value is given as “little success or worsening of their condition”.
As to `O=c1ccn([C@@H]2O[C@H](CO)[C@@H](O)[C@H]2O)c(=O)[nH]1` [uridine], in series [1] (Patient 1), the “Improvements upon cessation of uridine therapy” value is given as “declined or regressed”; the “Neurological and neuromuscular symptoms (autistic disorder and ataxia) upon administration” value is given as “improved dramatically”. Further, in series [1] (setting [5]), the “Fine motor skills with uridine” value was “a. Able to use a screwdriver”; the “Gross motor skills with uridine” value is “d. Hugs normally-finds it easier; also recorded: e. Much less exhaustion and pain; also recorded: b. Does not crash into furniture,”; the “Speech and language with uridine” value is on record as “b. Very quick to understand jokes,; also recorded: e. Usually makes eye contact”. In addition, the “Benefit at this dosage of uridine” value in series [1] (Patient 1, oral, 150 mg/kg/day) was “rapid benefits”. Besides, in series [1] (Patient 1, varying dosages up to 1000 mg/kg/day), the “Dosage dependence of improvements” value is on record as “The higher dosages gave the most improved results”. Also, the “Normal plasma concentration of uridine” value in series [2] was 2 to 10 µM. In series [3], the “Effect on symptoms in hypouricosuric PDD patients” value was “reduce the symptoms”. Further, in series [4] (dosages higher than 1000 mg/kg/day, some patients), the “Adverse effect at higher dosages” value was “mild diarrhea”. Further, the Toxic effects result in series [4] (dosages of up to 1000 mg/kg/day, pure uridine) is recorded as “no known toxic effects”.
As for `COC(=O)C(c1ccccc1)C1CCCCN1.Cl` (stereo not drawn) [Ritalin®, reference compound], in series [1] (Patient), the “Effect of earlier drug treatment” value is “little success or worsening of their condition”.
